Reference: patent US20260022142A1, “MACROCYCLIC IMMUNOMODULATORS” (Bristol-Myers Squibb Company, priority 2022, published 2026)
Bridge positions count the residues as written; N and C are the ends. Square brackets hold non-standard residues; d marks the D form. Peptide text beside a SMILES is read from it. * marks the point of attachment. ξ: configuration not given here. Bip = N[C@@H](Cc1ccc(-c2ccccc2)cc1)C(=O)O; Phe(3-Me) = Cc1cccc(C[C@H](N)C(=O)O)c1; Cha = N[C@@H](CC1CCCCC1)C(=O)O; Cit = NC(=O)NCCC[C@H](N)C(=O)O; Pen = CC(C)(S)[C@H](N)C(=O)O; Phg = N[C@H](C(=O)O)c1ccccc1; hCys = N[C@@H](CCS)C(=O)O; Carboxymethyl = O=C(O)C*; Orn = NCCC[C@H](N)C(=O)O; Aun = NCCCCCCCCCCC(=O)O; Dab = NCC[C@H](N)C(=O)O; Dap = NC[C@H](N)C(=O)O; ξT = CC(O)C(N)C(=O)O

Target: T1, PD-1/PD-L1 interaction (PE-labeled human PD-L1-Ig binding to Jurkat cell line over-expressing human PD-1) (Homo sapiens, UniProt Q15116)
T1 construct: expressed in transfected cells; host or cells: Jurkat
T1 sequence (Q15116 25-288): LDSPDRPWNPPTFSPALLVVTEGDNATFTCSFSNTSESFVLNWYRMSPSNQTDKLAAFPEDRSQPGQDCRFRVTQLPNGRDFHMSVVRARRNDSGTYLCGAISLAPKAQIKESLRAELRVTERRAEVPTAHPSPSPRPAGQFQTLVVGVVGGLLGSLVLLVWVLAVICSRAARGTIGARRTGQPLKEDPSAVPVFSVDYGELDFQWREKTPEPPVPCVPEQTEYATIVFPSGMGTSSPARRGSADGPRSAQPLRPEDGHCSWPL
Experiment: Jurkat-PD-1 Cell Binding High-Content Screening Assay (CBA)
Format: cell-based
Conditions: Jurkat cell line over-expressing human PD-1; PE-labeled PD-L1-Ig 20 nM final; read-out: Jurkat hPD1-PDL1 IC50
Summary of the method: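 Binding of fluorescent PD-L1-Ig (20 nM final) to Jurkat-PD-1 cells was measured by automated imaging after 1 h, following a 2 h compound pre-treatment at 37° C.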

SMILES: Cc1cccc(C[C@@H]2NC(=O)[C@H](CC(=O)O)NC(=O)[C@H](Cc3ccc(OCC(=O)O)cc3)NC(=O)[C@H](CN)NC(=O)CSC[C@@H](C(=O)N[C@@H](CCN)C(=O)NCCCCCCCCCCC(=O)O)NC(=O)[C@@H](CCC(N)=O)NC(=O)[C@H](C(C)C)NC(=O)[C@H](CC3CCCCC3)NC(=O)[C@H](CCN)NC(=O)[C@@H](CC(C)C)NC(=O)[C@H](CCCN)NC(=O)[C@H](Cc3ccc(O)cc3)NC(=O)[C@H](Cc3ccc(-c4ccccc4)cc3)NC(=O)[C@H](CC(C)C)NC2=O)c1 [Compound 2769] ({CH2CO}-[Dap]Y(Carboxymethyl)D[Phe(3-Me)]L[Bip]Y[Orn][dL][Dab][Cha]V[dQ]C[Dab][Aun]-OH; thioether N-14)
- IC50: 0.0607 µM

SMILES: Cc1cccc(C[C@@H]2NC(=O)[C@H](CC(=O)O)NC(=O)[C@H](Cc3ccc(OCC(=O)O)cc3)NC(=O)[C@H](CN)NC(=O)CSC[C@@H](C(=O)N[C@@H](CCN)C(=O)NCCCCCCCCCCC(=O)O)NC(=O)[C@@H](CCC(N)=O)NC(=O)[C@H](C(C)C)NC(=O)[C@H](CC(C)C)NC(=O)[C@H](CCN)NC(=O)[C@@H](CC(C)C)NC(=O)[C@H](CCCN)NC(=O)[C@H](Cc3ccc(O)cc3)NC(=O)[C@H](Cc3ccc(-c4ccccc4)cc3)NC(=O)[C@H](C(C)C)NC2=O)c1 [Compound 2770] ({CH2CO}-[Dap]Y(Carboxymethyl)D[Phe(3-Me)]V[Bip]Y[Orn][dL][Dab]LV[dQ]C[Dab][Aun]-OH; thioether N-14)
- IC50: 0.0378 µM

SMILES: Cc1cccc(C[C@@H]2NC(=O)[C@H](CC(=O)O)NC(=O)[C@H](Cc3ccc(OCC(=O)O)cc3)NC(=O)[C@H](CN)NC(=O)CSC[C@@H](C(=O)N[C@@H](CCN)C(=O)NCCCCCCCCCCC(=O)O)NC(=O)[C@@H]([C@H](C)O)NC(=O)[C@H](C(C)C)NC(=O)[C@H](CC(C)C)NC(=O)[C@H](CCN)NC(=O)[C@@H](CC(C)C)NC(=O)[C@H](CCCN)NC(=O)[C@H](Cc3ccc(O)cc3)NC(=O)[C@H](Cc3ccc(-c4ccccc4)cc3)NC(=O)[C@H](C(C)C)NC2=O)c1 [Compound 2771] ({CH2CO}-[Dap]Y(Carboxymethyl)D[Phe(3-Me)]V[Bip]Y[Orn][dL][Dab]LV[dT]C[Dab][Aun]-OH; thioether N-14)
- IC50: 0.0395 µM

SMILES: Cc1cccc(C[C@@H]2NC(=O)[C@H](CC(=O)O)NC(=O)[C@H](Cc3ccc(OCC(=O)O)cc3)NC(=O)[C@H](CN)NC(=O)CSC[C@@H](C(=O)N[C@@H](CCN)C(=O)NCCCCCCCCCCC(=O)O)NC(=O)[C@H](c3ccccc3)NC(=O)[C@H](C(C)C)NC(=O)[C@H](CC(C)C)NC(=O)[C@H](CCN)NC(=O)[C@@H](CC(C)C)NC(=O)[C@H](CCCN)NC(=O)[C@H](Cc3ccc(O)cc3)NC(=O)[C@H](Cc3ccc(-c4ccccc4)cc3)NC(=O)[C@H](C(C)C)NC2=O)c1 [Compound 2772] ({CH2CO}-[Dap]Y(Carboxymethyl)D[Phe(3-Me)]V[Bip]Y[Orn][dL][Dab]LV[Phg]C[Dab][Aun]-OH; thioether N-14)
- IC50: 0.0677 µM

SMILES: Cc1cccc(C[C@@H]2NC(=O)[C@H](CC(=O)O)NC(=O)[C@H](Cc3ccc(O)cc3)NC(=O)[C@H](CC(N)=O)NC(=O)CSC[C@@H](C(=O)N[C@@H](CCN)C(=O)NCCCCCCCCCCC(=O)O)NC(=O)[C@H](CCC(=O)O)NC(=O)[C@H](C(C)C)NC(=O)[C@H](CC(C)C)NC(=O)[C@H](CCN)NC(=O)[C@@H](CC(C)C)NC(=O)[C@H](CCCN)NC(=O)[C@H](CCCNC(N)=O)NC(=O)[C@H](Cc3ccc(-c4ccccc4)cc3)NC(=O)[C@H](C(C)C)NC2=O)c1 [Compound 2773] ({CH2CO}-NYD[Phe(3-Me)]V[Bip][Cit][Orn][dL][Dab]LVEC[Dab][Aun]-OH; thioether N-14)
- IC50: 0.022 µM

SMILES: Cc1cccc(C[C@@H]2NC(=O)[C@H](CC(=O)O)NC(=O)[C@H](Cc3ccc(O)cc3)NC(=O)[C@H](CC(N)=O)NC(=O)CSC[C@@H](C(=O)N[C@@H](CCCN)C(=O)NCCCCCCCCCCC(=O)O)NC(=O)C(C(C)O)NC(=O)[C@H](C(C)C)NC(=O)[C@H](CC(C)C)NC(=O)[C@H](CCN)NC(=O)[C@@H](CC(C)C)NC(=O)[C@H](CCCN)NC(=O)[C@H](CCCNC(N)=O)NC(=O)[C@H](Cc3ccc(-c4ccccc4)cc3)NC(=O)[C@H](C(C)C)NC2=O)c1 (stereo partly drawn) [Compound 2774] ({CH2CO}-NYD[Phe(3-Me)]V[Bip][Cit][Orn][dL][Dab]LV[ξT]C[Orn][Aun]-OH; thioether N-14)
- IC50: 0.0719 µM

SMILES: Cc1cccc(C[C@@H]2NC(=O)[C@H](CC(=O)O)NC(=O)[C@H](Cc3ccccc3)NC(=O)[C@H](CC(N)=O)NC(=O)CSCC[C@@H](C(=O)N[C@@H](CCCN)C(=O)NCCCCCCCCCCC(=O)O)NC(=O)[C@H](CCC(=O)O)NC(=O)[C@H](C(C)C)NC(=O)[C@H](CC(C)C)NC(=O)[C@H](CCN)NC(=O)[C@@H](CC(C)C)NC(=O)[C@H](CCCN)NC(=O)[C@H](CCCNC(N)=O)NC(=O)[C@H](Cc3ccc(-c4ccccc4)cc3)NC(=O)[C@H](C(C)C)NC2=O)c1 [Compound 2775] ({CH2CO}-NFD[Phe(3-Me)]V[Bip][Cit][Orn][dL][Dab]LVE[hCys][Orn][Aun]-OH; thioether N-14)
- IC50: 0.173 µM

SMILES: CC(C)C[C@H]1NC(=O)[C@H](CCCN)NC(=O)[C@H](C(C)C)NC(=O)[C@H](Cc2ccc(-c3ccccc3)cc2)NC(=O)[C@H](C(C)C)NC(=O)[C@H](Cc2c[nH]c3ccccc23)NC(=O)[C@H](CC(=O)O)NC(=O)[C@H](Cc2ccc(OCC(=O)O)cc2)NC(=O)[C@H](CN)NC(=O)CSC[C@@H](C(=O)N[C@@H](CCCN)C(=O)NCCCCCCCCCCC(=O)O)NC(=O)[C@H](CCC(=O)O)NC(=O)[C@H](C(C)C)NC(=O)[C@H](CC2CCCCC2)NC(=O)[C@H](Cc2c[nH]cn2)NC1=O [Compound 2776] ({CH2CO}-[Dap]Y(Carboxymethyl)DWV[Bip]V[Orn][dL]H[Cha]VEC[Orn][Aun]-OH; thioether N-14)
- IC50: 0.0541 µM

SMILES: Cc1cccc(C[C@@H]2NC(=O)[C@H](CC(=O)O)NC(=O)[C@H](Cc3ccc(OCC(=O)O)cc3)NC(=O)[C@H](CCCNC(=N)N)NC(=O)CSC[C@@H](C(=O)N[C@@H](CCN)C(=O)NCCCCCCCCCCC(=O)O)NC(=O)[C@H]([C@@H](C)O)NC(=O)[C@H](C(C)C)NC(=O)[C@H](CC3CCCCC3)NC(=O)[C@H](CCN)NC(=O)[C@@H](CC(C)C)NC(=O)[C@H](CCN)NC(=O)[C@H](CCCNC(N)=O)NC(=O)[C@H](Cc3ccc(-c4ccccc4)cc3)NC(=O)[C@H](C(C)C)NC2=O)c1 [Compound 2777] ({CH2CO}-RY(Carboxymethyl)D[Phe(3-Me)]V[Bip][Cit][Dab][dL][Dab][Cha]VTC[Dab][Aun]-OH; thioether N-14)
- IC50: 0.0201 µM

SMILES: Cc1cccc(C[C@@H]2NC(=O)[C@H](CC(=O)O)NC(=O)[C@H](Cc3ccc(OCC(=O)O)cc3)NC(=O)[C@H](CCCNC(=N)N)NC(=O)CSC[C@@H](C(=O)N[C@@H](CCN)C(=O)NCCCCCCCCCCC(=O)O)NC(=O)[C@H](CCC(=O)O)NC(=O)[C@H](C(C)C)NC(=O)[C@H](CC3CCCCC3)NC(=O)[C@H](CCN)NC(=O)[C@@H](CC(C)C)NC(=O)[C@H](CCN)NC(=O)[C@H](CCCNC(N)=O)NC(=O)[C@H](Cc3ccc(-c4ccccc4)cc3)NC(=O)[C@H](C(C)C)NC2=O)c1 [Compound 2778] ({CH2CO}-RY(Carboxymethyl)D[Phe(3-Me)]V[Bip][Cit][Dab][dL][Dab][Cha]VEC[Dab][Aun]-OH; thioether N-14)
- IC50: 0.0089 µM

SMILES: Cc1cccc(C[C@@H]2NC(=O)[C@H](CC(=O)O)NC(=O)[C@H](Cc3ccc(OCC(=O)O)cc3)NC(=O)[C@H](CCCNC(=N)N)NC(=O)CSC[C@@H](C(=O)N[C@@H](CCCN)C(=O)NCCCCCCCCCCC(=O)O)NC(=O)[C@H](CCC(=O)O)NC(=O)[C@H](C(C)C)NC(=O)[C@H](CC3CCCCC3)NC(=O)[C@H](CCN)NC(=O)[C@@H](CC(C)C)NC(=O)[C@H](CCN)NC(=O)[C@H](CCCNC(N)=O)NC(=O)[C@H](Cc3ccc(-c4ccccc4)cc3)NC(=O)[C@H](C(C)C)NC2=O)c1 [Compound 2780] ({CH2CO}-RY(Carboxymethyl)D[Phe(3-Me)]V[Bip][Cit][Dab][dL][Dab][Cha]VEC[Orn][Aun]-OH; thioether N-14)
- IC50: 0.0067 µM

SMILES: Cc1cccc(C[C@@H]2NC(=O)[C@H](CC(=O)O)NC(=O)[C@H](Cc3ccc(OCC(=O)O)cc3)NC(=O)[C@H](CN)NC(=O)CSCC[C@@H](C(=O)N[C@@H](C)C(=O)N[C@@H](CCC(=O)O)C(=O)NCCCCCCCCCCC(=O)O)NC(=O)[C@H]([C@@H](C)O)NC(=O)[C@H](C(C)C)NC(=O)[C@H](CC3CCCCC3)NC(=O)[C@H](CCN)NC(=O)[C@@H](CC(C)C)NC(=O)[C@H](CCCN)NC(=O)[C@H](CCCNC(N)=O)NC(=O)[C@H](Cc3ccc(-c4ccccc4)cc3)NC(=O)[C@H](C(C)C)NC2=O)c1 [Compound 2781] ({CH2CO}-[Dap]Y(Carboxymethyl)D[Phe(3-Me)]V[Bip][Cit][Orn][dL][Dab][Cha]VT[hCys]AE[Aun]-OH; thioether N-14)
- IC50: 0.0743 µM

SMILES: Cc1cccc(C[C@@H]2NC(=O)[C@H](CC(=O)O)NC(=O)[C@H](Cc3ccc(OCC(=O)O)cc3)NC(=O)[C@H](CN)NC(=O)CSC(C)(C)[C@@H](C(=O)N[C@@H](C)C(=O)N[C@@H](CCC(=O)O)C(=O)NCCCCCCCCCCC(=O)O)NC(=O)[C@H]([C@@H](C)O)NC(=O)[C@H](C(C)C)NC(=O)[C@H](CC3CCCCC3)NC(=O)[C@H](CCN)NC(=O)[C@@H](CC(C)C)NC(=O)[C@H](CCCN)NC(=O)[C@H](CCCNC(N)=O)NC(=O)[C@H](Cc3ccc(-c4ccccc4)cc3)NC(=O)[C@H](C(C)C)NC2=O)c1 [Compound 2782] ({CH2CO}-[Dap]Y(Carboxymethyl)D[Phe(3-Me)]V[Bip][Cit][Orn][dL][Dab][Cha]VT[Pen]AE[Aun]-OH; thioether N-14)
- IC50: 0.336 µM
